Reference: patent US8003682B2, “Indole compounds, a process for their preparation and pharmaceutical compositions containing them” (Les Laboratories Servier, priority 2006, dated 2011)

How the values were obtained:
MT1 receptor = MT1 receptor (Homo sapiens, UniProt P48039); test: Melatonin MT1 receptor binding study (2-[125I]-iodomelatonin competition); conditions: 2-[125I]-iodomelatonin radioligand, triplicate
Procedure: (§1) The MT1 or MT2 receptor binding experiments are carried out using 2-[^125I]-iodomelatonin as reference radioligand. The radioactivity retained is determined using a liquid scintillation counter.
(§2) Competitive binding experiments are then carried out in triplicate using the various test compounds. A range of different concentrations is tested for each compound. The results enable the binding affinities (Ki) of the compounds tested to be determined.

MT2 receptor = target: T1, MT2 receptor (Homo sapiens, UniProt P49286); test: Melatonin MT2 receptor binding study (2-[125I]-iodomelatonin competition); conditions: 2-[125I]-iodomelatonin radioligand, triplicate
T1 sequence (P49286 1-362): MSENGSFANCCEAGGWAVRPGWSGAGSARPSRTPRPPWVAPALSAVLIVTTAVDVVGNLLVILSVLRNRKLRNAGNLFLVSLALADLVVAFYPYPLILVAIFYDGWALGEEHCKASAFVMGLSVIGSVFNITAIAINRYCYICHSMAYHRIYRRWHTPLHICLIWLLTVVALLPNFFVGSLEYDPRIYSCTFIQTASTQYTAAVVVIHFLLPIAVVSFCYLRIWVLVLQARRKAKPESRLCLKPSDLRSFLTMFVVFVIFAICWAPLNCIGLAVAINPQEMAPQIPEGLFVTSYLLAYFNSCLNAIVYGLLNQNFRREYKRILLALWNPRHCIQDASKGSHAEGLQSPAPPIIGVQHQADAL
Procedure: as §1, §2

Chain of MT1 receptor (P48039 whole entry): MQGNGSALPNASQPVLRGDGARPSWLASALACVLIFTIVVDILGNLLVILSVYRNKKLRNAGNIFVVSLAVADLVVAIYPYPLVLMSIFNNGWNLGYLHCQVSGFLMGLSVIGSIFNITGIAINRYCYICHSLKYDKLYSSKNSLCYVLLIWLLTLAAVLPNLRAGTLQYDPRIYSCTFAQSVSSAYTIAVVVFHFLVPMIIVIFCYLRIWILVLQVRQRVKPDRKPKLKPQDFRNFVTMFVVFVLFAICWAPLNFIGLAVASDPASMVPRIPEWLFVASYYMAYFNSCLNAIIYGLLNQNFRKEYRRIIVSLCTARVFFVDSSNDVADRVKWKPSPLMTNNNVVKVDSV

CNC(=O)c1cc2ccc(OC)cc2n1CCNC(C)=O [Example 1, 1-[2-(Acetylamino)ethyl]-6-methoxy-N-methyl-1H-indole-2-carboxamide]
Ki (MT1 receptor): 18 nM | Ki (MT2 receptor): 1 nM
